From patent US20100311036A1, “Methods for Augmentation of Cell Cryopreservation” (UNIVERSITY OF SOUTH CAROLINA, priority 2009, published 2010)

Assays:
R1 mouse ES cells [1] = test: attachment efficiency (1 day viability) post cryopreservation; format: cell-based; conditions: post ultrafast vitrification in quartz microcapillary; 2 M PROH and/or 0.5 M extracellular trehalose; day 1, relative to non-frozen control
Procedure: (§1) A novel ultrafast cooling (cooling rate >2×10^5° C./min) technique for ice-free cryopreservation (i.e., ultrafast vitrification) of mouse ES cells has been recently developed using quartz microcapillaries (180 μm in inner diameter and 10 μm in wall thickness in the working part). A comparison of the quartz microcapillary and the traditional French type plastic straw used for cell vitrification is given in FIG. 2. […]
(§2) The immediate cell viability post cryopreservation represented by membrane integrity was assessed using the standard live/dead assay kit of two fluorescent probes: calcein AM and ethidium homodimer (Invitrogen, Carlsbad, Calif.). Cells that excluded ethidium homodimer and retained the fluorescent calcein were counted as being viable. To check cell viability more than one day post cryopreservation, cell attachment evaluated at day 1 and proliferation/growth evaluated over a three-day observation period were also studied. […] The number of cells in at least 20 randomly selected representative fields under a 10× objective was counted every day for all the samples. Proliferation was assessed by normalizing the number of cells at day 3 and day 2 to that at day 1. Attachment efficiency (i.e., viability at day 1) was calculated as the ratio of the number of cells of a cryopreserved sample to that of the control non-frozen sample at day 1. […]

R1 mouse ES cells [2] = test: immediate cell viability post cryopreservation (membrane integrity, live/dead assay); format: cell-based; conditions: post ultrafast vitrification in quartz microcapillary; 2 M PROH and/or 0.5 M extracellular trehalose; within 3 hr at day 0
Procedure: as §1, §2

| SMILES | 1 day viability (attachment efficiency) (R1 mouse ES cells [1]) | immediate cell viability (R1 mouse ES cells [2]) |
| --- | --- | --- |
| CC(O)CO (stereo not shown) [1,2-propanediol] | ~12% | ~20% |
| OC[C@H]1O[C@H](O[C@H]2O[C@H](CO)[C@@H](O)[C@H](O)[C@H]2O)[C@H](O)[C@@H](O)[C@@H]1O [trehalose] | < 2% | about 65% |
